Results reported in patent US8481544B2, “Antibacterial compositions” (Biota Europe Limited, priority 2006, dated 2013).
Converted amounts (≈) assume the structure as drawn. Where two headings read alike, the source gives them in different places.

Assays:
[1] = test system: Streptococcus pneumoniae (FQR) SP 26054; experiment: MIC against Streptococcus pneumoniae (FQR) SP 26054; format: cell-based; details: Isolate ID SP 26054
[2] = test system: Enterococcus faecium (VSE) ATCC 19434; experiment: MIC against Enterococcus faecium (VSE) ATCC 19434; format: cell-based; details: ATCC19434
Escherichia coli N43 = experiment: MIC against Escherichia coli N43; format: cell-based; details: Isolate ID N43
[3] = test system: Enterococcus faecium (VRE) ATCC 700221; experiment: MIC against Enterococcus faecium (VRE) ATCC 700221; format: cell-based
[4] = test system: Propionibacterium acnes ATCC 11821; experiment: MIC against Propionibacterium acnes ATCC 11821; format: cell-based; details: Cutibacterium acnes, ATCC11821; Isolate ID ATCC 11821
[5] = test system: Staphylococcus epidermidis ATCC 12228; experiment: MIC against Staphylococcus epidermidis ATCC 12228; format: cell-based; details: ATCC12228
[6] = test system: Mycoplasma hominis MH NCTC 10111; experiment: MIC against Mycoplasma hominis MH NCTC 10111; format: cell-based; details: Metamycoplasma hominis, NCTC10111; Isolate ID MH NCTC 10111
[7] = test system: Streptococcus pneumoniae SP 051430; experiment: MIC against Streptococcus pneumoniae SP 051430; format: cell-based; details: SP051430, Isolate ID SP 051430
[8] = test system: Moraxella catarrhalis ATCC 25240; experiment: MIC against Moraxella catarrhalis ATCC 25240; format: cell-based; details: ATCC25240
[9] = test system: Chlamydia trachomatis T71214; experiment: MIC against Chlamydia trachomatis T71214; format: cell-based; details: Isolate ID T71214
Mycoplasma hominis MH 10 = experiment: MIC against Mycoplasma hominis MH 10; format: cell-based; details: Metamycoplasma hominis, MH10; Isolate ID MH 10
[10] = test system: Neisseria gonorrhoeae NG ATCC 49226; experiment: MIC against Neisseria gonorrhoeae NG ATCC 49226; format: cell-based; details: ATCC49226, Isolate ID NG ATCC 49226
[11] = test system: Clostridium perfringens IV306001; experiment: microbe, parasite or virus in culture; format: cell-based; details: IV306001, read-out: MIC (Activity) against Clostridium perfringens
[12] = test system: Staphylococcus aureus ATCC 29213; experiment: MIC against Staphylococcus aureus ATCC 29213; format: cell-based; details: ATCC29213
[13] = test system: Staphylococcus aureus VRS2; experiment: MIC against Staphylococcus aureus VRS2; format: cell-based; details: Isolate ID VRS2
[14] = test system: Staphylococcus aureus VRS1; experiment: MIC against Staphylococcus aureus VRS1; format: cell-based; details: Isolate ID VRS1
[15] = test system: Streptococcus pyogenes ATCC 51339; experiment: MIC against Streptococcus pyogenes ATCC 51339; format: cell-based; details: ATCC51339
[16] = test system: Bacteroides fragilis ATCC 25285; experiment: MIC against Bacteroides fragilis ATCC 25285; format: cell-based; details: ATCC25285, Isolate ID ATCC 25285
[17] = test system: Staphylococcus aureus VRS3; experiment: MIC against Staphylococcus aureus VRS3; format: cell-based; details: Isolate ID VRS3
[18] = test system: Helicobacter pylori DJF 11; experiment: MIC against Helicobacter pylori DJF 11; format: cell-based; details: DJF11, Isolate ID DJF 11
[19] = test system: Streptococcus mutans ATCC 35668; experiment: MIC against Streptococcus mutans ATCC 35668; format: cell-based; details: ATCC35668
[20] = test system: Listeria monocytogenes ATCC 19115; experiment: MIC against Listeria monocytogenes ATCC 19115; format: cell-based; details: ATCC19115, Isolate ID ATCC 19115
[21] = test system: Streptococcus pneumoniae (FQR) SP 25058; experiment: MIC against Streptococcus pneumoniae (FQR) SP 25058; format: cell-based; details: Isolate ID SP 25058
[22] = test system: Lactococcus lactis ATCC 11454; experiment: MIC against Lactococcus lactis ATCC 11454; format: cell-based; details: ATCC11454, Isolate ID ATCC 11454
[23] = test system: Chlamydophila pneumoniae IOL207; experiment: MIC against Chlamydophila pneumoniae IOL207; format: cell-based; details: Chlamydia pneumoniae; Isolate ID IOL207
[24] = test system: Staphylococcus haemolyticus ATCC 29970; experiment: MIC against Staphylococcus haemolyticus ATCC 29970; format: cell-based; details: ATCC29970
[25] = test system: Streptococcus pneumoniae ATCC 700671; experiment: MIC against Streptococcus pneumoniae ATCC 700671; format: cell-based; details: ATCC700671, Isolate ID ATCC 700671
[26] = test system: Mycoplasma pneumoniae MP 9; experiment: MIC against Mycoplasma pneumoniae MP 9; format: cell-based; details: MP9, Isolate ID MP 9
[27] = test system: Haemophilus influenzae ATCC 49247; experiment: MIC against Haemophilus influenzae ATCC 49247; format: cell-based; details: ATCC49247, Isolate ID ATCC 49247
[28] = test system: Legionella pneumophila LP NCTC 11192; experiment: microbe, parasite or virus in culture; format: cell-based; details: NCTC11192, read-out: MIC (Activity) against Legionella pneumophila
[29] = test system: Clostridium difficile NQS 84; experiment: MIC against Clostridium difficile NQS 84; format: cell-based; details: Clostridioides difficile, NQS84; Isolate ID NQS 84
Text: Institute. Methods for Dilution Antimicrobial Susceptibility Tests for Bacteria That Grow Aerobically; Approved Standard—Seventh Edition. Document M7-A7. CLSI, Wayne, Pa., 2006; Clinical Laboratories and Standards Institute. Methods for Antimicrobial Susceptibility Testing of Anaerobic Bacteria; Approved Standard—Sixth Edition. Document M11-A6. CLSI, Wayne, Pa., 2004).

[30] = test system: Streptococcus pneumoniae (MacR) SP 051431; experiment: MIC against Streptococcus pneumoniae (MacR) SP 051431; format: cell-based; details: Isolate ID SP 051431
[31] = test system: Enterococcus faecalis ATCC 29212; experiment: MIC against Enterococcus faecalis ATCC 29212; format: cell-based; details: ATCC29212
Method in brief: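 MIC measured by broth microdilution or agar dilution following CLSI guidelines (M7-A7 for aerobes, M11-A6 for anaerobes).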

[32] = test system: Enterococcus faecalis (VRE) ATCC 51299; experiment: MIC against Enterococcus faecalis (VRE) ATCC 51299; format: cell-based
[33] = test system: Mycoplasma pneumoniae MP NCTC 10119; experiment: MIC against Mycoplasma pneumoniae MP NCTC 10119; format: cell-based; details: NCTC10119, Isolate ID MP NCTC 10119
Staphylococcus aureus = experiment: mouse Staphylococcus aureus septicaemia model of infection, survival at day 7; format: in vivo
Protocol: Some of the Example compounds were also tested for activity in a mouse Staphylococcus aureus septicaemia model of infection.

[34] = test system: Streptococcus agalactiae ATCC 13813; experiment: MIC against Streptococcus agalactiae ATCC 13813; format: cell-based; details: ATCC13813
[35] = test system: Streptococcus pneumoniae ATCC 49619; experiment: MIC against Streptococcus pneumoniae ATCC 49619; format: cell-based; details: ATCC49619

CCNC(=O)Nc1nc2cc(-c3cccnc3)cc(-c3ccccn3)c2s1 [Example 163, 1-Ethyl-3-(5-pyridin-3-yl-7-pyridin-2-yl-benzothiazol-2-yl)-urea]
MIC [1]: < 0.25 µg/mL
MIC ([2]; Enterococcus faecium, Isolate ID ATCC 19434, read-out: MIC (Activity) against Enterococcus faecium (VSE)): 0.25 to 1 µg/mL (≈ 0.666 to 2.66 µM)
MIC (Escherichia coli N43): 2 to 16 µg/mL (≈ 5.33 to 42.6 µM)
MIC ([3]; Enterococcus faecium, Isolate ID ATCC 700221, read-out: MIC (Activity) against Enterococcus faecium (VRE)): < 0.25 µg/mL
MIC [4]: < 0.25 µg/mL
MIC ([5]; Staphylococcus epidermidis, Isolate ID ATCC 12228, read-out: MIC (Activity) against Staphylococcus epidermidis): < 0.25 µg/mL
MIC [6]: 0.25 to 1 µg/mL (≈ 0.666 to 2.66 µM)
MIC [7]: < 0.25 µg/mL
MIC ([8]; Moraxella catarrhalis, Isolate ID ATCC 25240, read-out: MIC (Activity) against Moraxella catarrhalis): < 0.25 µg/mL
MIC [9]: 0.25 to 1 µg/mL (≈ 0.666 to 2.66 µM)
MIC (Mycoplasma hominis MH 10): 0.25 to 1 µg/mL (≈ 0.666 to 2.66 µM)
MIC [10]: 0.25 to 1 µg/mL (≈ 0.666 to 2.66 µM)
MIC [11]: 0.25 to 1 µg/mL (≈ 0.666 to 2.66 µM)
MIC ([12]; Staphylococcus aureus, Isolate ID ATCC 29213, read-out: MIC (Activity) against Staphylococcus aureus): 0.25 to 1 µg/mL (≈ 0.666 to 2.66 µM)
MIC [13]: < 0.25 µg/mL
MIC [14]: < 0.25 µg/mL
MIC ([15]; Streptococcus pyogenes, Isolate ID ATCC 51339, read-out: MIC (Activity) against Streptococcus pyogenes): 0.25 to 1 µg/mL (≈ 0.666 to 2.66 µM)
MIC [16]: 2 to 16 µg/mL (≈ 5.33 to 42.6 µM)
MIC [17]: < 0.25 µg/mL
MIC [18]: < 0.25 µg/mL
MIC ([19]; Streptococcus mutans, Isolate ID ATCC 35668, read-out: MIC (Activity) against Streptococcus mutans): < 0.25 µg/mL
MIC [20]: < 0.25 µg/mL
MIC [21]: < 0.25 µg/mL
MIC [22]: < 0.25 µg/mL
MIC [23]: < 0.25 µg/mL
MIC ([24]; Staphylococcus haemolyticus, Isolate ID ATCC 29970, read-out: MIC (Activity) against Staphylococcus haemolyticus): < 0.25 µg/mL
MIC [25]: < 0.25 µg/mL
MIC [26]: 0.25 to 1 µg/mL (≈ 0.666 to 2.66 µM)
MIC [27]: 2 to 16 µg/mL (≈ 5.33 to 42.6 µM)
MIC [28]: 0.25 to 1 µg/mL (≈ 0.666 to 2.66 µM)
MIC [29]: 0.25 to 1 µg/mL (≈ 0.666 to 2.66 µM)
MIC [30]: < 0.25 µg/mL
MIC ([31]; Enterococcus faecalis ATCC 29212, read-out: MICs against Enterococcus faecalis, Activity): < 0.25 µg/mL
MIC ([32]; Enterococcus faecalis, Isolate ID ATCC 51299, read-out: MIC (Activity) against Enterococcus faecalis (VRE)): < 0.25 µg/mL
MIC [33]: 0.25 to 1 µg/mL (≈ 0.666 to 2.66 µM)
Percent survival (Staphylococcus aureus; 1 × 10 mg/kg intraperitoneal, 1 hour after inoculation): 60
Percent survival (Staphylococcus aureus; 1 × 30 mg/kg intraperitoneal, 1 hour after inoculation): 100
Percent survival (Staphylococcus aureus; 2 × 30 mg/kg intraperitoneal, 1 and 6 hours after inoculation): 100

CCNC(=O)Nc1nc2cc(-c3cccnc3)nc(-c3cccnc3)c2s1 [Example 180, 1-(4,6-Di-pyridin-3-yl-thiazolo[5,4-c]pyridin-2-yl)-3-ethyl-urea]
MIC ([2]; Enterococcus faecium (VSE) ATCC 19434, read-out: MIC Activity): 2 to 16 µg/mL (≈ 5.31 to 42.5 µM)
MIC ([3]; Enterococcus faecium (VRE) ATCC 700221, read-out: MIC Activity): 2 to 16 µg/mL (≈ 5.31 to 42.5 µM)
MIC ([5]; Staphylococcus epidermidis ATCC 12228, read-out: MIC Activity): 0.25 to 1 µg/mL (≈ 0.664 to 2.66 µM)
MIC ([8]; Moraxella catarrhalis ATCC 25240, read-out: MIC Activity): 0.25 to 1 µg/mL (≈ 0.664 to 2.66 µM)
MIC [34]: 0.25 to 1 µg/mL (≈ 0.664 to 2.66 µM)
MIC ([12]; Staphylococcus aureus ATCC 29213, read-out: MIC Activity): 2 to 16 µg/mL (≈ 5.31 to 42.5 µM)
MIC ([15]; Streptococcus pyogenes ATCC 51339, read-out: MIC Activity): 2 to 16 µg/mL (≈ 5.31 to 42.5 µM)
MIC ([19]; Streptococcus mutans ATCC 35668, read-out: MIC Activity): 0.25 to 1 µg/mL (≈ 0.664 to 2.66 µM)
MIC ([24]; Staphylococcus haemolyticus ATCC 29970, read-out: MIC Activity): 0.25 to 1 µg/mL (≈ 0.664 to 2.66 µM)
MIC [35]: 0.25 to 1 µg/mL (≈ 0.664 to 2.66 µM)
MIC ([31]; Enterococcus faecalis, ATCC 29212, Table 5, read-out: MIC against Enterococcus faecalis (Activity)): 0.25 to 1 µg/mL (≈ 0.664 to 2.66 µM)
MIC ([32]; Enterococcus faecalis (VRE) ATCC 51299, read-out: MIC Activity): 0.25 to 1 µg/mL (≈ 0.664 to 2.66 µM)
